US12006350B2, “Triblock peptide amphiphiles, micelles and methods of use” (The Curators of the University of Missouri, priority 2017, dated 2024)
No end group written: not given here. *: point of attachment. Palmitoyl = CCCCCCCCCCCCCCCC(=O)*

Assays:
dendritic cells (DCs) [1] = experiment: TNF-α secretion from LPS-activated DCs incubated with VIP materials; assay type: cell-based; conditions: low (1 μM) or high (20 μM) concentration
Method: (§1) The anti-inflammatory effect of VIPAMs were explored by incubating MOs and DCs with LPS and different VIP materials at low (i.e. 1 μM) or high (20 μM) concentrations (FIG. 41A, FIG. 41B, and FIG. 41C).

dendritic cells (DCs) [2] = experiment: CCL22 production from DCs treated with VIP formulations; assay type: cell-based; conditions: 24 hours; for DC CCL22 production: immature and mature DCs; for CCL22 production from immature DCs: vs no stimulus
Method: Thus, CCL22 production from DCs treated with different VIP formulations was evaluated.

dendritic cells (DCs) [3] = experiment: CD86 expression on DCs incubated with VIP materials; assay type: cell-based; conditions: for CD86 expression on activated DCs: with LPS
Method: as §1

macrophages (MØs) = experiment: TNF-α secretion from LPS-activated MØs incubated with VIP materials; assay type: cell-based
Method: as §1

[4] = cited from earlier work
[5] = Zeta potential measurement of the zwitterion-like peptide region alone; assay type: physicochemical
Text: The alternating charge groups of (KE)4 at neutral pH can create local dipole moments that allow for intermicellar complexation yielding the observed twining behavior. At low pH and high pH utilized, not all of the glutamic acids or lysines will be protonated or deprotonated, respectively, but the local change in (KE)4 block charge is significant enough to repulse one another yielding individual thread-like micelles.

[6] = Micelle morphology and diameter by negative stain TEM; assay type: physicochemical; conditions: concentrations above CMC
Method: Micelle morphology was assessed by negative stain transmission electron microscopy (TEM). TEM grids (200 mesh) with standard thickness carbon support films were purchased from Electron Microscopy Sciences and glow discharged for 45 seconds (Pelco Easiglow) to impart a negative charge. Product solutions (5 μL) were added to freshly glow-discharged films and incubated for 5 minutes. Filter paper was used to wick away excess solution and 5 μL of nanotungsten (Nanoprobes, Inc.) was immediately added. After 5 minute of incubation, grids were blotted dried and stored for later use. Samples were imaged with a JEOL JEM-1400 TEM at 120 kV for shape assessment. Tilt series images were collected at 200 kV, spot size 4, gun lens of 5, and extraction voltage of 3950 sA at a nominal 23,000× magnification with an underfocus of 1 sm. Tilt increments were collected every 2 degrees with a tilt range of ±70°, starting at 0°, with the negative half of the tilt series collected using FEI Xplore3D. Frames were aligned using IMOD with the patch-tracking algorithm using the entire imaged area for frame alignment and reconstructed with the weighted back projection algorithm. Micellar diameters were measured using ImageJ software (NIH). Three different spots from each micelle were measured and the results from three separate micelles were averaged for each group.

[7] = Critical micelle concentration (CMC) by DPH fluorescence; assay type: physicochemical; conditions: VIP amphiphiles
Method: Critical micelle concentration (CMC) was measured indirectly by 1,6-diphenyl-1,3,5-hexatriene (DPH) fluorescence. […] Peptide amphiphile solutions were serially diluted in 1 μM 1,6-diphenyl-1,3,5 hexatriene (DPH) containing 0.01% THF and allowed to equilibrate for 1 hour prior to fluorescence measurement (ex. 350 nm, em. 428 nm) by a BioTek Cytation 5 fluorospectrophotometer. The resulting data was fit with two trend lines and the fluorescence inflection point was interpreted as the CMC (Table 4 and FIG. 23, FIG. 24, FIG. 25, FIG. 26, FIG. 27, FIG. 28, FIG. 29, and FIG. 30).
VIPA design and physical characterization: Based on our recent research, two VIPA chemistries were produced. The first VIPA was synthesized by directly conjugating palmitic acid (Palm) to the N-terminus of VIP to form Palm-VIP, […] (SEQ ID NO: 3), (pVIPA—FIG. 39A). The second VIPA included a zwitterion-like peptide region between Palm and VIP yielding PalmK-(EK)4-VIP, […] (SEQ ID NO: 4) (pzVIPA—FIG. 39B). […] While the addition of the hydrophilic block may have been expected to maintain or decrease the CMC, peptide folding to orient the most hydrophilic section externally can induce bending in the PA that may prevent straightforward micellar packing. […] This increased length is likely due to the intermicellar electrostatic complexation we have previously described for similar triblock PAs. […]

[8] = Micelle/peptide secondary structure by circular dichroism; assay type: physicochemical; conditions: CD analysis; compared with VIP and pVIPA
Method: Micelle secondary structure was investigated by circular dichroism using a circular dichroism spectrometer model 62DS (Aviv Biomedical, Inc., Lakewood, NJ). Micelle solutions (40 μM) were loaded into a 1 mm cuvette and measured a total of 10 times from 190 to 250 nm with an interval of 1 nm. The averaged data was curve fit using a linear combination of polylysine basis structures to calculate approximate α-helix, β-sheet, and random coil content.

dendritic cells (DCs) [9] = conditions: after 48 hours of incubation; previous results; cited from earlier work
[10] = low (1 μM) or high (20 μM) concentration

| Compound | TNF-α secretion from activated DCs (dendritic cells (DCs) [1]) | DC CCL22 production (dendritic cells (DCs) [2]) | CD86 expression on activated DCs (dendritic cells (DCs) [3]; [10]) | TNF-α secretion from activated MØs (macrophages (MØs); [10]) | CCL22 production from immature DCs (dendritic cells (DCs) [2]; high concentration) | CD86 expression on activated DCs (dendritic cells (DCs) [3]; high concentration (20 μM)) | micelle shape [6] | also measured |
| --- | --- | --- | --- | --- | --- | --- | --- | --- |
| CCCCCCCCCCCCCCCC(=O)O [Palm, palmitic acid, reference compound] | no TNF-α nor CD86 regulation | no impact on CCL22 induction | no TNF-α nor CD86 regulation | no TNF-α nor CD86 regulation |  |  |  |  |
| N[C@@H](CCC(=O)O)C(=O)O [glutamic acid] |  |  |  |  |  |  |  | pKa [4]: 4.07 |
| -Lys-Glu-Lys-Glu-Lys-Glu-Lys-Glu- (KEKEKEKE) [(KE)4] |  |  |  |  |  |  |  | Zeta Potential ([5]; pH 2): 31.4 ± 2.9 mV; Zeta Potential ([5]; pH 7): −7.8 ± 1.2 mV; Zeta Potential ([5]; pH 11): −18.1 ± 4.7 mV |
| Palm-VIP [pVIPA] | completely nullified VIP effects |  |  | unable to enhance the TNF-α suppressive effects of VIP | induced greater CCL22 production | enhanced | cylindrical micelles | CCL22 production from mature DCs (dendritic cells (DCs) [2]; high concentration, vs LPS-stimulated mature DC control): enhanced CCL22 production; CD86 expression in immature DCs (dendritic cells (DCs) [3]; high concentration, no LPS): significantly increased |
| PalmK-(EK)4-VIP (K(Palmitoyl)EKEKEKEKHSDAVFTDNYTRLRKQMAVKKYLNSILN-NH2; not fully specified) [pzVIPA] | maintained VIP-based TNF-α secretion |  |  |  | induced greater CCL22 production | significantly limited | braided micelles | CD86 cell surface expression on immature DCs (dendritic cells (DCs) [3]; no LPS): no increase; CMC [7]: 9.3 µM; TNF-α secretion from activated MØs (macrophages (MØs); effect only at high concentration (20 μM)): nearly completely abrogated; α-helical conformation [8]: more abundant |
| Vasoactive intestinal peptide (HSDAVFTDNYTRLRKQMAVKKYLNSILN) [VIP, reference compound] | modestly reduce | unable to induce | modestly reduce | modestly reduce |  |  |  | CCL22 production (dendritic cells (DCs) [9]): induces significant CCL22 production |
